The numbers were not newly measured in patent publication US9067940B2, “Alicyclic derivatives of N,N'-substituted 3,7-diazabicyclo[3.3.1]nonanes and medicaments based thereon” (priority 2011, dated 2015), which cites them from elsewhere.

For series [1], the system named is AMPA receptors. Conditions: adult rats, 0.3-3 mg/kg.
Series [2] relates to AMPA receptors.
Series [3] has as its system AMPA receptors. Conditions: only at high concentrations.
For series [4] the following is noted: behavioral models.
For series [5] the following is noted: mice suffering from diabetes.

As for `O=C(c1ccc2c(c1)OCCO2)N1CCCCC1` [CX546], the social memory entry in the series on AMPA receptors [1] is recorded as “improves social memory”.

For `COc1ccc(C(=O)N2CCCC2=O)cc1` [aniracetam], the “effect on synaptic signal at several hippocampus sites” value in the series with AMPA receptors [2] is “enhances the synaptic signal”. Also, in the series on NMDA-mediated signals, the “effect on NMDA-mediated signals” value was “no effect”. In the series on AMPA receptors [3], the “concentration at which the clinical effect is manifested” value was 0.1 mM.

In the case of `COc1ccc(C(=O)NCCCC(=O)O)cc1` [anisoyl-GABA], in the series on AMPA receptors [2] (metabolite of aniracetam), the aniracetam-like effects entry is listed as “no aniracetam-like effects”.

B1: BDNF: brain-derived neurotrophic factor, a neural tissue growth factor (protein, UniProt P23560 19-247, looked up)
Neurotrophic factor BDNF …: APMKEANIRGQGGLAYPGVRTHGTLESVNGPKAGSRGLTSLADTFEHVIEELLDEDQKVRPNEENNKDADLYTSRVMLSSQVPLEPPLLFLLEEYKNYLDAANMSMRVRRHSDPARRGELSVCDSISEWVTAADKKTAVDMSGGTVTVLEKVPVSKGQLKQYFYETKCNPMGYTKEGCRGIDKRHWNSQCRTTQSYVRALTMDSKKRIGWRFIRIDTSCVCTLTIKRGR
As to B1, the antidepressant effect entry in series [4] is listed as “antidepressant effect”. In series [5], the blood glucose concentration result is listed as “reduce the blood glucose concentration”.
